Experiment [1] addresses T1, human arginase I (ARG I) (Homo sapiens, UniProt P05089).
T1 sequence (P05089 1-322): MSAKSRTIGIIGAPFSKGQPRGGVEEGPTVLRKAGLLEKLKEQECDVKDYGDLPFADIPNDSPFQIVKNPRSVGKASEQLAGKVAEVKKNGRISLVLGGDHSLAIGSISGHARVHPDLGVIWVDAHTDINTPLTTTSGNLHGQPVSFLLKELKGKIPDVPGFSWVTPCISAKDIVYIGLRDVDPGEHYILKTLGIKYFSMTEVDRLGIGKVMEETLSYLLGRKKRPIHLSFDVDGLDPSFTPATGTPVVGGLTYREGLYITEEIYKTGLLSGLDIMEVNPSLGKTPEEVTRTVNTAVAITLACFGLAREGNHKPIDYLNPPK
Nature of the experiment: Inhibition of arginase I, spectrophotometric urea assay at 530 nm. The experiment is classed as biochemical. As to conditions: read-out: Potency (ARG I). In short, it runs like this: (§1)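 IC50 was derived by regression of OD530 normalized to uninhibited-enzyme controls against log concentration. Urea from 60-min, 37 °C turnover of L-arginine with manganese sulfate was detected after acid o-phthaldialdehyde/primaquine quench and 10 min colour development. Arginase I and II came from 100 ng/ml stocks in pH 7.4 phosphate with ovalbumin.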

The target in experiment [2] is T2, arginase II (ARG II) (Homo sapiens, UniProt P78540).
T2 sequence (P78540 23-354): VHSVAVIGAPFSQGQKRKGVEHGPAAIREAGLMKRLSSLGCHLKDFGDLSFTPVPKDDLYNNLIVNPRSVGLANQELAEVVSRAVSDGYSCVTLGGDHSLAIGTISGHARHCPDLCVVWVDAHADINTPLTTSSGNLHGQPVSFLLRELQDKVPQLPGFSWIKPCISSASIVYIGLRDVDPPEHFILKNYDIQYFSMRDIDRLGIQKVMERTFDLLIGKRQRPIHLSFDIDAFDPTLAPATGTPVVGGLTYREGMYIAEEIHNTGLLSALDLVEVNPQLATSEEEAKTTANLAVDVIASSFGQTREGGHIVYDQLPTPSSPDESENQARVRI
Nature of the experiment: Inhibition of arginase II, spectrophotometric urea assay at 530 nm. The experiment is classed as biochemical. In short, it runs like this: as §1

The mark [3] stands for this setting: Formula I compounds, Table 2, read-out: Potency (ARG II).
Where [4] appears, read: Formula II compounds, Table 2-A.
[5] abbreviates: Formula II compounds, Table 2-A, read-out: Potency (ARG).

Structures are written as SMILES. pIC50: −log10 of the molar value. Counter-ions that a name gives are not always drawn. Like-named read-outs stand apart in the source and are kept apart here.

For the molecule `C[C@H](NCC(N)(CCCCB(O)O)C(=O)O)c1ccccc1` (stereo partly drawn) [compound 90, 2-amino-6-borono-2-(((S)-1-phenylethylamino)methyl)hexanoic acid dihydrochloride], the pIC50 in experiment [1] (Formula I compounds, Table 2) was 5.30 to 5.70; in experiment [2] (setting [3]), 5.30 to 5.70.
Regarding `CC[C@](N)(CCCCB(O)O)C(=O)O` [compound 15, (S)-2-amino-6-borono-2-ethylhexanoic acid hydrochloride], the pIC50 is 5.30 to 5.70 in experiment [1] (Formula I compounds, Table 2) and 5.30 to 5.70 in experiment [2] (setting [3]).
`CN1CCCN(CCC(N)(CCCCB(O)O)C(=O)O)CC1` (stereo not drawn) [compound 49, 2-amino-6-borono-2-(2-(4-methyl-1,4-diazepan-1-yl)ethyl)hexanoic acid dihydrochloride]: the pIC50 is 5.30 to 5.70 in experiment [1] (Formula I compounds, Table 2) and 5.30 to 5.70 in experiment [2] (setting [3]).
As for `NCCN(CCN)CCC(N)(CCCCB(O)O)C(=O)O` (stereo not drawn) [compound 51, 2-amino-2-(2-(bis(2-aminoethyl)amino)ethyl)-6-boronohexanoic acid tetrahydrochloride], the pIC50 in experiment [1] (Formula I compounds, Table 2) was 5.70 to 6.00; in experiment [2] (setting [3]), 5.30 to 5.70.
Take `COc1cccc(CCCNCCC(N)(CCCCB(O)O)C(=O)O)c1` (stereo not drawn) [compound 65, 2-amino-6-borono-2-(2-(3-(3-methoxyphenyl)propylamino)ethyl)hexanoic acid dihydrochloride]: the pIC50 was 6.60 to 10.00 in experiment [1] (Formula I compounds, Table 2) and 6.60 to 10.00 in experiment [2] (setting [3]).
As for `COc1ccccc1N1CCN(CCC(N)(CCCCB(O)O)C(=O)O)CC1` (stereo not drawn) [compound 50, 2-amino-6-borono-2-(2-(4-(2-methoxyphenyl)piperazin-1-yl)ethyl)hexanoic acid dihydrochloride], the pIC50 in experiment [1] (Formula I compounds, Table 2) is less than 5.30; in experiment [2] (setting [3]), less than 5.30.
With `CN(CCO)CCC(N)(CCCCB(O)O)C(=O)O` (stereo not drawn) [compound 43, 2-amino-6-borono-2-(2-((2-hydroxyethyl)(methyl)amino)ethyl)hexanoic acid dihydrochloride], the pIC50 in experiment [1] (Formula I compounds, Table 2) was 5.70 to 6.00; in experiment [2] (setting [3]) it was 5.30 to 5.70.
For the molecule `NC(CCCCB(O)O)(C(=O)O)C1CCN(CCCc2ccc(Cl)cc2Cl)CC1` (stereo not drawn) [Example 66-A, 2-amino-6-borono-2-(1-(3-(2,4-dichlorophenyl)propyl)piperidin-4-yl)hexanoic acid dihydrochloride], the pIC50 in experiment [1] (setting [4]) and in experiment [2] (setting [5]) was 6.60 to 10.00 throughout.
As to `NC(CCCCB(O)O)(C(=O)O)C1CCN(c2nc3ccc(Cl)cc3s2)CC1` (stereo not drawn) [11-A, 2-amino-6-borono-2-[(6-chlorobenzothiazol-2-yl)-piperidin-4-yl)-hexanoic acid dihydrochloride], the pIC50 in experiment [1] (setting [4]) and in experiment [2] (setting [5]) was 6.00 to 6.60 in each case.
For the molecule `NC(CCCCB(O)O)(CC(=O)O)C(=O)O` (stereo not drawn) [compound 106, 2-amino-2-(4-boronobutyl)succinic acid hydrochloride], the pIC50 was less than 5.30 in experiment [1] (Formula I compounds, Table 2) and less than 5.30 in experiment [2] (setting [3]).
As to `NC(CCCCB(O)O)(CCN1CCc2[nH][nH]c(=O)c2C1)C(=O)O` (stereo not drawn) [compound 30, 2-amino-6-borono-2-(2-(3-oxo-2,3,6,7-tetrahydro-1H-pyrazolo[4,3-c]pyridin-5(4H)-yl)ethyl)hexanoic acid dihydrochloride], the pIC50 was 6.00 to 6.60 in experiment [1] (Formula I compounds, Table 2) and 5.70 to 6.00 in experiment [2] (setting [3]).
Take `NC(CCCCB(O)O)(C(=O)O)[C@@H]1CCN(Cc2ccc(C(F)(F)F)cc2)C1` (mixture of isomers) [38-A, 2-amino-6-borono-2-((R)-1-(4-(trifluoromethyl)benzyl)pyrrolidin-3-yl)hexanoic acid dihydrochloride]: the pIC50 in experiment [1] (setting [4]) and in experiment [2] (setting [5]) was 6.00 to 6.60 in each case.
As for `CCCC1CCN(CCC(N)(CCCCB(O)O)C(=O)O)CC1` (stereo not drawn) [compound 129, 2-amino-6-borono-2-(2-(4-propylpiperidin-1-yl)ethyl)hexanoic acid dihydrochloride], the pIC50 in experiment [1] (Formula I compounds, Table 2) is 6.00 to 6.60; in experiment [2] (setting [3]), 5.70 to 6.00.
As for `CC1(C(=O)O)CCN(CCC(N)(CCCCB(O)O)C(=O)O)CC1` (stereo not drawn) [compound 57, 1-(3-amino-7-borono-3-carboxyheptyl)-4-methylpiperidine-4-carboxylic acid], the pIC50 in experiment [1] (Formula I compounds, Table 2) was 5.70 to 6.00; in experiment [2] (setting [3]), 5.70 to 6.00.
As to `NC(CCCCB(O)O)(C(=O)O)C(O)c1cccnc1` (stereo not drawn) [compound 112, 2-amino-6-borono-2-(hydroxy(pyridin-3-yl)methyl)hexanoic acid dihydrochloride], the pIC50 in experiment [1] (Formula I compounds, Table 2) is 5.30 to 5.70; in experiment [2] (setting [3]), 5.30 to 5.70.
On to `NC(CCCCB(O)O)(CCN1CCC(Cc2ccc(C(F)(F)F)cc2)CC1)C(=O)O` (stereo not drawn) [compound 126, 2-amino-6-borono-2-(2-(4-(4-(trifluoromethyl)benzyl)piperidine-1-yl)ethyl)hexanoic acid dihydrochloride], for which the pIC50 is 6.00 to 6.60 in experiment [1] (Formula I compounds, Table 2) and 6.00 to 6.60 in experiment [2] (setting [3]).
As for `NC(CCCCB(O)O)(Cc1cnc[nH]1)C(=O)O` (stereo not drawn) [compound 102, 2-((1H-imidazol-5-yl)methyl)-2-amino-6-boronohexanoic acid dihydrochloride], the pIC50 in experiment [1] (Formula I compounds, Table 2) is 5.30 to 5.70; in experiment [2] (setting [3]), 5.30 to 5.70.
On to `NC(CCCCB(O)O)(C(=O)O)[C@@H]1CCN(Cc2ccc(F)cc2)C1` (mixture of isomers) [37-A, 2-amino-6-borono-2-((R)-1-(4-fluorobenzyl)pyrrolidin-3-yl)hexanoic acid], for which the values for the pIC50 in experiment [1] (setting [4]) and in experiment [2] (setting [5]) were 6.00 to 6.60 and 5.70 to 6.00, respectively.
As for `NC(CCCCB(O)O)(C(=O)O)C1CCN(CCc2ccccc2)CC1` (stereo not drawn) [Example 41-A, 2-amino-6-borono-2-(1-phenethylpiperidin-4-yl)hexanoic acid], the pIC50 was 6.00 to 6.60 in experiment [1] (setting [4]) and 6.60 to 10.00 in experiment [2] (setting [5]).
Regarding `NC(CCCCB(O)O)(CC1CNC1)C(=O)O` (stereo not drawn) [compound 123, 2-amino-2-(azetidin-3-ylmethyl)-6-boronohexanoic acid dihydrochloride], the pIC50 in experiment [1] (Formula I compounds, Table 2) was 5.30 to 5.70; in experiment [2] (setting [3]) it was less than 5.30.
Regarding `NC(CCCCB(O)O)(C(=O)O)C1CCN(Cc2ccc(Cl)c(F)c2)CC1` (stereo not drawn) [Example 49-A, 2-amino-6-borono-2-(1-(4-chloro-3-fluorobenzyl)piperidin-4-yl)hexanoic acid], the pIC50 in experiment [1] (setting [4]) is 6.00 to 6.60; in experiment [2] (setting [5]) it was 6.60 to 10.00.
In the case of `N[C@H]1CC[C@@H]([C@@](N)(CCCCB(O)O)C(=O)O)C1` [17-A, (S)-2-amino-2-((1R,3S)-3-aminocyclopentyl)-6-boronohexanoic acid dihydrochloride], the pIC50 in experiment [1] (setting [4]) and in experiment [2] (setting [5]) was 6.60 to 10.00 each time.
As to `NC(CCCCB(O)O)(CCN1CCc2sccc2C1)C(=O)O` (stereo not drawn) [compound 29, 2-amino-6-borono-2-(2-(6,7-dihydrothieno[3,2-c]pyridin-5(4H)-yl)ethyl)hexanoic acid dihydrochloride], the pIC50 was 6.00 to 6.60 in experiment [1] (Formula I compounds, Table 2) and 5.70 to 6.00 in experiment [2] (setting [3]).
Taken in the same sequence, the figures for `N[C@](CCCCB(O)O)(CCN1Cc2ccccc2C[C@H]1CO)C(=O)O` [compound 1, (R)-2-amino-6-borono-2-(2-((S)-3-(hydroxymethyl)-3,4-dihydroisoquinolin-2(1H)-yl)ethyl)hexanoic acid dihydrochloride] were 6.00 to 6.60 and 6.00 to 6.60.
For the molecule `N[C@](CCCCB(O)O)(CCN1CCC[C@H](O)C1)C(=O)O` [compound 5, (R)-2-amino-6-borono-2-(2-((S)-3-hydroxypiperidin-1-yl)ethyl)hexanoic acid dihydrochloride], the pIC50 in experiment [1] (Formula I compounds, Table 2) was 5.70 to 6.00; in experiment [2] (setting [3]), 5.30 to 5.70.
Turning to `NC(CCCCB(O)O)(C(=O)O)C1CCN(C(=O)NCCc2ccc(F)cc2)CC1` (stereo not drawn) [33-A, 2-amino-6-borono-2-(1-{[2-(4-fluorophenyl)ethyl]-carbamoyl}piperidin-4-yl)hexanoic acid hydrochloride], the pIC50 in experiment [1] (setting [4]) and in experiment [2] (setting [5]) was 5.70 to 6.00 throughout.
Turning to `NC(CCCCB(O)O)(CCN1CCC[C@H](C(=O)O)C1)C(=O)O` (stereo partly drawn) [compound 56, (3S)-1-(3-amino-7-borono-3-carboxyheptyl)piperidine-3-carboxylic acid dihydrochloride], the pIC50 was 5.70 to 6.00 in experiment [1] (Formula I compounds, Table 2) and 5.30 to 5.70 in experiment [2] (setting [3]).
As to `Cc1cc(CN2CCC(C(N)(CCCCB(O)O)C(=O)O)CC2)n(C)n1` (stereo not drawn) [Example 62-A, 2-amino-6-borono-2-(1-((1,3-dimethyl-1H-pyrazol-5-yl)methyl)piperidin-4-yl)hexanoic acid dihydrochloride], the pIC50 in experiment [1] (setting [4]) and in experiment [2] (setting [5]) was 6.00 to 6.60 in each case.
`CCC(O)C(N)(CCCCB(O)O)C(=O)O` (stereo not drawn) [compound 108, 2-amino-6-borono-2-(1-hydroxypropyl)hexanoic acid hydrochloride]: the pIC50 in experiment [1] (Formula I compounds, Table 2) was 5.70 to 6.00; in experiment [2] (setting [3]) it was 5.30 to 5.70.
In the case of `NC(CCCCB(O)O)(C(=O)O)C1CNC1` (stereo not drawn) [18-A, 2-amino-2-(azetidin-3-yl)-6-boronohexanoic acid dihydrochloride], the pIC50 in experiment [1] (setting [4]) and in experiment [2] (setting [5]) was 5.30 to 5.70 throughout.

These data come from patent publication US9994594B2, “Inhibitors of arginase and their therapeutic applications” (MARS, INCORPORATED, priority 2010, dated 2018).
